The values below come from ChEMBL document CHEMBL1130296, “Benzo[c]quinoliziniums: A new family of inhibitors for protein kinase CK II” (Bioorg Med Chem Lett, 1997).

T1 sequence (P67870 whole entry): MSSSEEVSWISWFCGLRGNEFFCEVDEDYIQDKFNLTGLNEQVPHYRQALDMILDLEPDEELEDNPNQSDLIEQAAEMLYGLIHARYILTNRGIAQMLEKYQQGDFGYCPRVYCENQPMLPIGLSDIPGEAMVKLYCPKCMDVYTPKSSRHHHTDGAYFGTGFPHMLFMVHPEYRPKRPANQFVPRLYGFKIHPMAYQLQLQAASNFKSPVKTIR
T1 sequence (P68400 whole entry): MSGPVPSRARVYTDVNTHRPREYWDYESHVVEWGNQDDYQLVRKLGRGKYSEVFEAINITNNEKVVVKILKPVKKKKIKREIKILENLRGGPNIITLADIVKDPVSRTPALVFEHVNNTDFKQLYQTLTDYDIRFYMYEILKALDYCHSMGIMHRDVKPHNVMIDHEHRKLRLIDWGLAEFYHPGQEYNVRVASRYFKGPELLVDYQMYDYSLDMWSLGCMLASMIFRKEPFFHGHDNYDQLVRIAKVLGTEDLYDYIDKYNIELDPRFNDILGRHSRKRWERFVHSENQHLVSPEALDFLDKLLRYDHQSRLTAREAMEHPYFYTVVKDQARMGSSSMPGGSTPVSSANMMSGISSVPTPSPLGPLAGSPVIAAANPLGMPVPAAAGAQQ
T1 sequence (P19784 whole entry): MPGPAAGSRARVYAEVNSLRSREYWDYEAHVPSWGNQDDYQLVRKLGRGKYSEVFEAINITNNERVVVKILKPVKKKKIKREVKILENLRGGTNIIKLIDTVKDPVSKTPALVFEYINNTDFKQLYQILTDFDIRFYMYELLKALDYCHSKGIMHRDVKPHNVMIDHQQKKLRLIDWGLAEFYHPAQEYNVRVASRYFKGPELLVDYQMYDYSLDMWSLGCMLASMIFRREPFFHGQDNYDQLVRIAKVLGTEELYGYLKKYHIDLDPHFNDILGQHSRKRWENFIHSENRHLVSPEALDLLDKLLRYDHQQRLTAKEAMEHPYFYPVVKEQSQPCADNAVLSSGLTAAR
Sequence of Cyclin-dependent kinase 1 (P06493 whole entry): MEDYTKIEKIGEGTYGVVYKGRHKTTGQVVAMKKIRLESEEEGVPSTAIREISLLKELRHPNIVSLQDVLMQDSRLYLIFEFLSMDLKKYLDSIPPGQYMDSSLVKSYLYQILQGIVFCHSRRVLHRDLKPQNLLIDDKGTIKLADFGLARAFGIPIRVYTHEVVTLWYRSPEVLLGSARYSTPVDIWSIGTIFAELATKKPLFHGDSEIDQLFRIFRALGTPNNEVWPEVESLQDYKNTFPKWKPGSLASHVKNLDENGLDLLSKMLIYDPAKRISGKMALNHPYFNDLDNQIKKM

The first test concerns the target T1, Casein kinase II (Homo sapiens, UniProt P19784+P67870+P68400). Put plainly: Inhibitory concentration was determined towards Casein kinase 2. The test is classed as protein-complex assay.
As for `Oc1cc2cccc[n+]2c2ccccc12` [listing 1 of 2 here], the IC50 turned out to be 43 µM. On the same count and under the same terms, the value for `O/C(=C/c1ccccn1)c1ccc(Cl)cc1Cl` was 900 µM; that for `O/C(=C/c1ccccn1)c1cccc(Cl)c1Cl` was 130 µM; that for `Oc1cc2cccc[n+]2c2ccc(Cl)cc12` was 210 µM. As to `O/C(=C/c1ccccn1)c1ccccc1`, the IC50 came out at 2500 µM. The same measure, in the same setting: to `Nc1cc2cccc[n+]2c2ccccc12` [listing 1 of 2 here] belongs 110 µM; to `Nc1cc2cccc[n+]2c2ccccc12` [listing 2 of 2 here], 100 µM; to `Nc1cc2cccc[n+]2c2cc(Cl)ccc12`, 24 µM.

In turn, `Nc1cc2cccc[n+]2c2c(Cl)cccc12` showed a half-maximal inhibitory concentration (IC50) of 50 µM. On the same count and under the same terms, to `O/C(=C/c1ccccn1)c1ccccc1Cl` belongs 1200 µM; to `Nc1cc2cccc[n+]2c2cccc(Cl)c12`, 84 µM; to `Oc1cc2cccc[n+]2c2cccc(Cl)c12`, 18 µM.

Compound `Oc1cc2cccc[n+]2c2ccccc12` [listing 2 of 2 here] had an IC50 of 50 µM. Still for that read-out and setting: to `O/C(=C/c1ccccn1)c1c(Cl)cccc1Cl` belongs 580 µM; to `O/C(=C/c1ccccn1)c1ccccc1Br`, 820 µM; to `Oc1cc2cccc[n+]2c2cc(Cl)ccc12`, 39 µM.

A further test deals with T1, Casein kinase II. The experiment in a line: Inhibition of casein kinase II. The test is classed as protein-complex assay.
Regarding `Oc1cc2cccc[n+]2c2c(Cl)cccc12.[Cl-]`, the 50% inhibitory concentration (IC50) is 5 µM.

Another test has as its target Cyclin-dependent kinase 1 (Homo sapiens, UniProt P06493). Put plainly: Inhibition of cyclin-dependent kinase 1 cdc2.
In turn, `Oc1cc2cccc[n+]2c2c(Cl)cccc12.[Cl-]` gave a concentration for half-maximal inhibition (IC50) greater than 1000 µM.

For another test, the target named is Proto-oncogene tyrosine-protein kinase Src (Homo sapiens, UniProt P12931). Put plainly: Inhibition of p60 c-Src tyrosine kinase (No inhibition).
Sequence of Proto-oncogene tyrosine-protein kinase Src (P12931 2-536 limits assumed): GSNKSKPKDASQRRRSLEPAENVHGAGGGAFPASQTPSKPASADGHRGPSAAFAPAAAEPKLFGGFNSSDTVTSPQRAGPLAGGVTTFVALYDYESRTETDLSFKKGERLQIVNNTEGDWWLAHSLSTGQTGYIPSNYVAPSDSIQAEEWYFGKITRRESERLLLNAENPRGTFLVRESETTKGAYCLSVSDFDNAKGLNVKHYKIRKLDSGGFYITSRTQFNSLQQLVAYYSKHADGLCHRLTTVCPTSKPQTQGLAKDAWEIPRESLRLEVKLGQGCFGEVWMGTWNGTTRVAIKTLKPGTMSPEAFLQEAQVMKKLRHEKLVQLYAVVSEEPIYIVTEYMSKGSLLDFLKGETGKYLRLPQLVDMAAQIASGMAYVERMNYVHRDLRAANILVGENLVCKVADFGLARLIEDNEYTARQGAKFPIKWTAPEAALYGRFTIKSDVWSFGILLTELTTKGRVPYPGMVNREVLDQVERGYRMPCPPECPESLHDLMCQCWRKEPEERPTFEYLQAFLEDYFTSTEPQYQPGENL
Regarding `Oc1cc2cccc[n+]2c2c(Cl)cccc12.[Cl-]`, the concentration for half-maximal inhibition (IC50) entry was “Not Active”.

A further test has as its target Protein kinase C (PKC). Put plainly: Inhibition of protein kinase C. The test is classed as protein assay.
Regarding `Oc1cc2cccc[n+]2c2c(Cl)cccc12.[Cl-]`, the concentration for half-maximal inhibition (IC50) is 38 µM.
